Structures are written as SMILES. Where a SMILES comes first, the peptide text is derived from it. [ ]: non-standard residue; d: D form. Aoe = N[C@@H](CCCCCC(=O)[C@@H]1CO1)C(=O)O

A short description of this assay: Treatment of diabetes mellitus with other HDAC regulators instead of givinostat (Example 7). Conditions: used instead of givinostat; model and dose not stated. Format: in vivo.
Regarding `O=C(O)CCCc1ccccc1` [4-phenylbutyric acid], the diabetes mellitus outcome is recorded as “similarly cured”.
To `O=C(CCCCCCSc1ccc2ccccc2c1)NO` [(N-hydroxy-7-2-naphthylthio)heptanomide] belongs “similarly cured”.
The value for `CCCC(=O)OCOC(=O)C(C)(C)C` [(pivaloyloxy)methyl butyrate] was “similarly cured”.
The value for `CN(C)CCCNC(=O)/C(=C/CCCCC(=O)NO)COc1cccc2ccccc12` [CG200745] was “similarly cured”; that for `O=C(CCC1=CCCN(CCCc2ccccc2)C1=O)NO` [KBH-A42] was “similarly cured”; that for `CN(C)c1ccc(C(=O)NCc2ccc(/C=C/C(=O)NO)cc2)cc1` [SK-7041] was “similarly cured”.
Take `O=C(CCCCCCC(=O)Nc1ccc([C@H]2O[C@@H](CSc3nc(-c4ccccc4)c(-c4ccccc4)o3)C[C@@H](c3ccc(CO)cc3)O2)cc1)NO` [Tubacin]: the diabetes mellitus outcome was “similarly cured”.
The value for `CN(C)Cc1c(C(=O)NCCOc2ccc(C(=O)NO)cc2)oc2ccccc12` [abexinostat] was “similarly cured”; that for `O=C(CCCCCCCC(=O)NO)NO` [azelaoyl-bis-hydroxamic acid] was “similarly cured”.
The value for `O=C(/C=C/c1cccc(S(=O)(=O)Nc2ccccc2)c1)NO` [belinostat] was “similarly cured”; that for `O=C(/C=C/c1ccc(CN(CCO)CCc2c[nH]c3ccccc23)cc1)NO` [dacinostat] was “similarly cured”; that for `C=CCSSSCC=C` [diallyl trisulfide] was “similarly cured”.
Regarding `Nc1ccccc1NC(=O)c1ccc(CNC(=O)OCc2cccnc2)cc1` [entinostat], the diabetes mellitus outcome is on record as “similarly cured”.
Turning to `O=C(C=Cc1cccc(C(=O)NO)c1)NO` [m-carboxycinnamic acid bis-hydroxamide], the diabetes mellitus outcome is listed as “similarly cured”.
The value for `Nc1ccccc1NC(=O)c1ccc(CNc2nccc(-c3cccnc3)n2)cc1` [mocetinostat] was “similarly cured”.
With `O=C(NO)c1cnc(N2C[C@@H]3[C@H](C2)[C@H]3NCc2ccc3cc(F)ccc3n2)nc1` [nanatinostat], the diabetes mellitus outcome was “similarly cured”.
To `CCCCc1nc2cc(/C=C/C(=O)NO)ccc2n1CCN(CC)CC` [pracinostat] belongs “similarly cured”; to `Cn1cc(CNCC2CCN(c3ncc(C(=O)NO)cn3)CC2)c2ccccc21` [quisinostat], “similarly cured”; to `CN(C)Cc1ccc(S(=O)(=O)n2ccc(/C=C/C(=O)NO)c2)cc1` [resminostat], “similarly cured”.
In the case of `O=C(CCCCCCNC(=O)c1cnc(N(c2ccccc2)c2ccccc2)nc1)NO` [rocilinostat], the diabetes mellitus outcome is “similarly cured”.
Consider `O=C(CCCCCN1C(=O)c2cccc3cccc(c23)C1=O)NO` [scriptaid], for which the diabetes mellitus outcome was “similarly cured”.
Regarding `CCCC(=O)[O-].[Na+]` [sodium butyrate], the diabetes mellitus outcome is listed as “similarly cured”.
To `CC(=O)Nc1ccc(C(=O)Nc2ccccc2N)cc1` [tacedinaline] belongs “similarly cured”; to `O=C1N[C@@H](Cc2ccccc2)C(=O)N2CCC[C@@H]2C(=O)N[C@@H](CCCCCC(=O)[C@@H]2CO2)C(=O)N[C@H]1Cc1ccccc1` [trapoxin] (cyclo(FF[dP][Aoe])), “similarly cured”; to `CC(/C=C/C(=O)NO)=C\[C@@H](C)C(=O)c1ccc(N(C)C)cc1` [trichostatin A], “similarly cured”.
Take `O=C(CCCCCCC(=O)Nc1ccccc1)NO` [vorinostat, suberoylanilide hydroxamic acid]: the diabetes mellitus outcome was “similarly cured”.

The record behind these values is patent EP4424327A1, “METHOD OR AGENT WITH HDAC REGULATOR, FOR TREATMENT OF DIABETES AND COMPLICATIONS” (Biozipcode, Inc., priority 2021, dated 2023).
